Assay results reported in patent US20200339691A1, “PROTEINACEOUS MOLECULES AND USES THEREFOR” (priority 2018, published 2020).
Where a SMILES comes first, the peptide text is derived from it. The star is where a group is joined. Myristoyl = CCCCCCCCCCCCCC(=O)*

Columns and labels:
[1] = tested on: CD44^hiCD24^lo CSCs in MDA-MB-231 cells; test: FACS analysis of CD44^hiCD24^lo cancer stem cells in MDA-MB-231 cells treated with P1 analogues; assay type: cell-based, human; conditions: 50 μM peptide, 48 hours; for CD44^hiCD24^lo CSCs (%) / COI, Live Single CD44^hiCD24^lo CSCs (Cell Count): n = 1; for Average Inhibition of CSCs (%) / CD44^hiCD24^lo CSCs (%) Repeat 1 / CD44^hiCD24^lo CSCs (%) Repeat 2 / CD44^hiCD24^lo CSCs (%) Repeat 3: n = 3
Procedure: Analogues of P1 (Table 6) were designed and synthesized in accordance with the procedure of Example 5. The ability of these analogues to inhibit cancer stem cells was determined using FACS analysis on MDA-MB-231 cells, which constitutively contain approximately 90% CD44^hiCD24^lo cancer stem cells, treated with the peptides.
(§1) Non-adherent cells were removed during the washing steps.

MDA-MB-231 cells = assay type: cell-based, human; conditions: 50 μM peptide, 48 hours, n = 1
Excerpt: as §1
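Throughout, for COI, Live Single Cells (Cell Count): live means Hoechst-negative events among single cells.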

| SMILES | Inhibition of CSCs (%) Repeat 1 [1] [%] | Inhibition of CSCs (%) Repeat 2 [1] [%] | Inhibition of CSCs (%) Repeat 3 [1] [%] | CD44^hiCD24^lo CSCs (%) [1] [%] | COI, Live Single CD44^hiCD24^lo CSCs (Cell Count) [1] | Average Inhibition of CSCs (%) [1] [%] | CD44^hiCD24^lo CSCs (%) Repeat 1 [1] [%] | CD44^hiCD24^lo CSCs (%) Repeat 2 [1] [%] | CD44^hiCD24^lo CSCs (%) Repeat 3 [1] [%] | COI (Cell Count) (MDA-MB-231 cells) | COI, Live Single Cells (Cell Count) (MDA-MB-231 cells) | COI, Single (Cell Count) (MDA-MB-231 cells) | Total Cell Count (MDA-MB-231 cells) |
| --- | --- | --- | --- | --- | --- | --- | --- | --- | --- | --- | --- | --- | --- |
| CCCCCCCCCCCCCC(=O)N[C@H](C(=O)N[C@@H](Cc1ccccc1)C(=O)N[C@H](C(=O)N[C@@H](Cc1ccccc1)C(=O)N[C@@H](CCCNC(=N)N)C(=O)N[C@@H](CC(C)C)C(=O)N[C@@H](CCCNC(=N)N)C(=O)N[C@@H](CCCCN)C(=O)NCC(=O)N[C@@H](CCCNC(=N)N)C(=O)N[C@@H](CCSC)C(=O)N[C@@H](CCSC)C(=O)N[C@@H](CC(=O)O)C(=O)N[C@@H](C)C(=O)N[C@@H](CCCCN)C(=O)N[C@@H](CCCCN)C(N)=O)[C@@H](C)CC)[C@@H](C)O [Peptide 2815315, Myristoyl-TFIFRLRKGRMMDAKK-NH2] (Myristoyl-TFIFRLRKGRMMDAKK-NH2) | 86.74 | 82.99 | 83.97 | 18.75 | 3 | 84.57 | 11.89 | 15.26 | 14.39 | 51 | 16 | 41 | 12122 |
| CCCCCCCCCCCCCC(=O)N[C@H](C(=O)N[C@@H](Cc1ccccc1)C(=O)N[C@@H](C)C(=O)N[C@@H](Cc1ccccc1)C(=O)N[C@@H](CCCNC(=N)N)C(=O)N[C@@H](CC(C)C)C(=O)N[C@@H](CCCNC(=N)N)C(=O)N[C@@H](CCCCN)C(=O)NCC(=O)N[C@@H](CCCNC(=N)N)C(=O)N[C@@H](CCSC)C(=O)N[C@@H](CCSC)C(=O)N[C@@H](CC(=O)O)C(=O)N[C@H](C(=O)N[C@@H](CCCCN)C(=O)N[C@@H](CCCCN)C(N)=O)C(C)C)[C@@H](C)O [Peptide 2815304, Myristoyl-TFAFRLRKGRMMDVKK-NH2] (Myristoyl-TFAFRLRKGRMMDVKK-NH2) | 43.62 | 47.79 | 51.20 | 68.03 | 83 | 47.54 | 50.53 | 46.84 | 43.79 | 157 | 122 | 137 | 4317 |
| CCCCCCCCCCCCCC(=O)N[C@@H](CC(C)C)C(=O)N[C@H](C(=O)N[C@@H](Cc1ccccc1)C(=O)N[C@H](C(=O)N[C@@H](Cc1ccccc1)C(=O)N[C@@H](CCCNC(=N)N)C(=O)N[C@@H](CC(C)C)C(=O)N[C@@H](CCCNC(=N)N)C(=O)N[C@@H](CCCCN)C(=O)NCC(=O)N[C@@H](CCCNC(=N)N)C(=O)N[C@@H](CCSC)C(=O)N[C@@H](CCSC)C(=O)N[C@@H](CC(=O)O)C(=O)N[C@H](C(=O)N[C@@H](CCC(=O)O)C(=O)N[C@@H](CCCCN)C(N)=O)C(C)C)[C@@H](C)CC)[C@@H](C)O [Peptide 2853841, Myristoyl-LTFIFRLRKGRMMDVEK-NH2] (Myristoyl-LTFIFRLRKGRMMDVEK-NH2) | 78.06 | 79.59 | 80.30 | 11.40 | 147 | 79.32 | 19.67 | 18.31 | 17.67 | 2072 | 1289 | 1594 | 6480 |
| CCCCCCCCCCCCCC(=O)N[C@@H](CC(C)C)C(=O)N[C@H](C(=O)N[C@@H](Cc1ccccc1)C(=O)N[C@H](C(=O)N[C@@H](Cc1ccccc1)C(=O)N[C@@H](CCCNC(=N)N)C(=O)N[C@@H](Cc1ccccc1)C(=O)N[C@@H](CCCNC(=N)N)C(=O)N[C@@H](CCCCN)C(=O)NCC(=O)N[C@@H](CCCNC(=N)N)C(=O)N[C@@H](CCSC)C(=O)N[C@@H](CCSC)C(=O)N[C@@H](CC(=O)O)C(=O)N[C@H](C(=O)N[C@@H](CCCCN)C(=O)N[C@@H](CCCCN)C(N)=O)C(C)C)[C@@H](C)CC)[C@@H](C)O [Peptide 2853819, Myristoyl-LTFIFRFRKGRMMDVKK-NH2] (Myristoyl-LTFIFRFRKGRMMDVKK-NH2) | 98.02 | 89.55 | 93.19 | 2.62 | 5 | 93.59 | 1.78 | 9.38 | 6.11 | 563 | 191 | 372 | 4572 |
| CCCCCCCCCCCCCC(=O)N[C@@H](CC(C)C)C(=O)N[C@H](C(=O)N[C@@H](Cc1ccccc1)C(=O)N[C@H](C(=O)N[C@@H](Cc1ccccc1)C(=O)N[C@@H](CCCNC(=N)N)C(=O)N[C@@H](CC(C)C)C(=O)N[C@@H](CCCNC(=N)N)C(=O)N[C@@H](CCCCN)C(=O)NCC(=O)N[C@@H](CCCNC(=N)N)C(=O)N[C@@H](CCSC)C(=O)N[C@@H](CCSC)C(=O)N[C@@H](CC(=O)O)C(=O)N[C@H](C(=O)N[C@@H](CC(C)C)C(=O)N[C@@H](CCCCN)C(N)=O)C(C)C)[C@@H](C)CC)[C@@H](C)O [Peptide 2853842, Myristoyl-LTFIFRLRKGRMMDVLK-NH2] (Myristoyl-LTFIFRLRKGRMMDVLK-NH2) | 76.16 | 78.88 | 81.46 | 12.39 | 27 | 78.83 | 21.37 | 18.95 | 16.64 | 325 | 218 | 249 | 3873 |
| CCCCCCCCCCCCCC(=O)N[C@@H](CC(C)C)C(=O)N[C@H](C(=O)N[C@@H](Cc1ccccc1)C(=O)N[C@H](C(=O)N[C@@H](Cc1ccccc1)C(=O)N[C@@H](CCC(=O)O)C(=O)N[C@@H](CC(C)C)C(=O)N[C@@H](CCCNC(=N)N)C(=O)N[C@@H](CCCCN)C(=O)NCC(=O)N[C@@H](CCCNC(=N)N)C(=O)N[C@@H](CCSC)C(=O)N[C@@H](CCSC)C(=O)N[C@@H](CC(=O)O)C(=O)N[C@H](C(=O)N[C@@H](CCCCN)C(=O)N[C@@H](CCCCN)C(N)=O)C(C)C)[C@@H](C)CC)[C@@H](C)O [Peptide 2853817, Myristoyl-LTFIFELRKGRMMDVKK-NH2] (Myristoyl-LTFIFELRKGRMMDVKK-NH2) | 88.00 | 91.08 | 82.27 | 13.76 | 56 | 87.12 | 10.75 | 8.00 | 15.91 | 511 | 407 | 463 | 899 |
| CCCCCCCCCCCCCC(=O)N[C@@H](CC(C)C)C(=O)N[C@H](C(=O)N[C@@H](Cc1ccccc1)C(=O)N[C@H](C(=O)N[C@@H](Cc1ccccc1)C(=O)N[C@@H](CCCNC(=N)N)C(=O)N[C@@H](CC(C)C)C(=O)N[C@@H](CCC(=O)O)C(=O)N[C@@H](CCCCN)C(=O)NCC(=O)N[C@@H](CCCNC(=N)N)C(=O)N[C@@H](CCSC)C(=O)N[C@@H](CCSC)C(=O)N[C@@H](CC(=O)O)C(=O)N[C@H](C(=O)N[C@@H](CCCCN)C(=O)N[C@@H](CCCCN)C(N)=O)C(C)C)[C@@H](C)CC)[C@@H](C)O [Peptide 2853823, Myristoyl-LTFIFRLEKGRMMDVKK-NH2] (Myristoyl-LTFIFRLEKGRMMDVKK-NH2) | 80.72 | 81.08 | 82.74 | 3.62 | 22 | 81.52 | 17.28 | 16.97 | 15.49 | 672 | 608 | 626 | 1209 |
| CCCCCCCCCCCCCC(=O)N[C@@H](CC(C)C)C(=O)N[C@H](C(=O)N[C@@H](Cc1ccccc1)C(=O)N[C@H](C(=O)N[C@@H](Cc1ccccc1)C(=O)N[C@@H](CCCNC(=N)N)C(=O)N[C@@H](CC(C)C)C(=O)N[C@@H](CCCNC(=N)N)C(=O)N[C@@H](CCCCN)C(=O)NCC(=O)N[C@@H](CCCNC(=N)N)C(=O)N[C@@H](CCSC)C(=O)N[C@@H](CCSC)C(=O)N[C@H](C(=O)N[C@H](C(=O)N[C@@H](CCCCN)C(=O)N[C@@H](CCCCN)C(N)=O)C(C)C)C(C)C)[C@@H](C)CC)[C@@H](C)O [Peptide 2853837, Myristoyl-LTFIFRLRKGRMMVVKK-NH2] (Myristoyl-LTFIFRLRKGRMMVVKK-NH2) | 93.82 | 93.76 | 88.86 | 5.53 | 13 | 92.15 | 5.54 | 5.59 | 10.00 | 452 | 235 | 364 | 4805 |
